Experimental data as given in patent publication US8951997B2, “Substituted isoquinoline derivative” (D. Western Therapeutics Institute, Inc., priority 2009, dated 2015).
Where a name gives a salt, the structure may show the parent alone.

tested on: rabbits (New Zealand White); assay: Ocular hypotensive effect in rabbits; type: in vivo, rabbit; conditions: Oryctolagus cuniculus, topical, 0.04 mL dropped to one eye, vehicle to contralateral eye, test compound solution concentration 10 (W/V), read-out: Maximum ocular hypotensive rate
Method: The compound of the present invention was administered to rabbits (New Zealand White, sex: male, 3 to 7 per group) and evaluated for its ocular hypotensive effect.
Each test compound was dissolved in a vehicle (1.04 g of sodium dihydrogen phosphate dihydrate and 0.5 g of sodium chloride dissolved in purified water and then adjusted to pH 7.0 with sodium hydroxide to make the total amount to 100 mL) to prepare a test compound solution with a concentration of 10 (W/V).
The intraocular pressures of the rabbits were measured using Tiolat TonoVet handheld tonometer immediately before administration of test compound. The test compound solution and the vehicle were dropped at a volume of 0.04 mL to one eye and the contralateral eye, respectively, and the intraocular pressures were measured over time in the same way as above. The rate of the intraocular pressure of the eye receiving the test compound solution to that of the eye receiving the vehicle was calculated as an ocular hypotensive rate.

SMILES	inhibition in vivo at 10 %
O=S(=O)(c1ccc2cnccc2c1)N1CCCCNCC1CF (stereo in doubt) [Example 27, (R)-6-(2-fluoromethyl-1,4-diazocan-1-ylsulfonyl)isoquinoline dihydrochloride]	≥ 15%
C[C@@H]1CNCCNCCN1S(=O)(=O)c1ccc2cnccc2c1 [Example 44, (R)-6-(2-methyl-1,4,7-triazonan-1-ylsulfonyl)isoquinoline trihydrochloride]	≥ 15%
C[C@@H]1CCNC[C@H](C)N1S(=O)(=O)c1ccc2cnccc2c1 [Example 36, (2S,7R)-6-(2,7-dimethyl-1,4-diazepan-1-ylsulfonyl)isoquinoline dihydrochloride]	≥ 15%
O=S(=O)(c1ccc2cnccc2c1Br)N1CCCNCC1 [Example 5, 5-bromo-6-(1,4-diazepan-1-ylsulfonyl)isoquinoline dihydrochloride]	≥ 15%
O=S(=O)(c1ccc2cnccc2c1)N1CCNCC1 [Example 1, 6-(piperazin-1-ylsulfonyl)isoquinoline dihydrochloride]	≥ 15%
C[C@H]1CNCCCN1S(=O)(=O)c1ccc2cnccc2c1 [Example 12, (S)-6-(2-methyl-1,4-diazepan-1-ylsulfonyl)isoquinoline dihydrochloride]	≥ 15%
NCC(=O)N1CCCN(S(=O)(=O)c2ccc3cnccc3c2)CC1 [Example 45, 6-(4-glycyl-1,4-diazepan-1-ylsulfonyl)isoquinoline dihydrochloride]	5 to 15%
CNCC(=O)N1CCCCN(S(=O)(=O)c2ccc3cnccc3c2)[C@H](C)C1 [Example 48, (R)-6-(4-sarcosyl-2-methyl-1,4-diazocan-1-ylsulfonyl)isoquinoline dihydrochloride]	5 to 15%
CC[C@@H]1CNCCCCN1S(=O)(=O)c1ccc2cnccc2c1 [Example 20, (R)-6-(2-ethyl-1,4-diazocan-1-ylsulfonyl)isoquinoline dihydrochloride]	≥ 15%
C[C@@H]1CNCCCN1S(=O)(=O)c1cc2ccncc2cc1F [Example 25, (R)-6-(2-methyl-1,4-diazepan-1-ylsulfonyl)-7-fluoroisoquinoline dihydrochloride]	≥ 15%
C[C@@H]1CCNCCCN1S(=O)(=O)c1ccc2cnccc2c1 [Example 38, (R)-6-(2-methyl-1,5-diazocan-1-ylsulfonyl)isoquinoline dihydrochloride]	≥ 15%
CC[C@@H]1CNCCCN1S(=O)(=O)c1ccc2cnccc2c1 [Example 19, (R)-6-(2-ethyl-1,4-diazepan-1-ylsulfonyl)isoquinoline dihydrochloride]	≥ 15%
C[C@@H]1CNCCCCN1S(=O)(=O)c1ccc2cnccc2c1Br [Example 23, (R)-5-bromo-6-(2-methyl-1,4-diazocan-1-ylsulfonyl)isoquinoline dihydrochloride]	≥ 15%
CC1CCNCCN1S(=O)(=O)c1ccc2cnccc2c1 (stereo not shown) [Example 17, 6-(7-methyl-1,4-diazepan-1-ylsulfonyl)isoquinoline dihydrochloride]	≥ 15%
C[C@H]1CNCCCCN1S(=O)(=O)c1ccc2cnccc2c1 [Example 24, (S)-6-(2-methyl-1,4-diazocan-1-ylsulfonyl)isoquinoline dihydrochloride]	≥ 15%
O=S(=O)(c1ccc2cnccc2c1)N1CCCCNCC1 [Example 21, 6-(1,4-diazocan-1-ylsulfonyl)isoquinoline dihydrochloride]	≥ 15%
C[C@@H]1CNCCCN1S(=O)(=O)c1ccc2cnccc2c1Br [Example 29, (R)-5-bromo-6-(2-methyl-1,4-diazepan-1-ylsulfonyl)isoquinoline dihydrochloride]	≥ 15%
C[C@H]1CCNCCCN1S(=O)(=O)c1ccc2cnccc2c1 [Example 42, (S)-6-(2-methyl-1,5-diazocan-1-ylsulfonyl)isoquinoline dihydrochloride]	≥ 15%
O=S(=O)(c1cc(F)c2cnccc2c1)N1CCCNCC1 [Example 6, 6-(1,4-diazepan-1-ylsulfonyl)-8-fluoroisoquinoline dihydrochloride]	5 to 15%
C[C@@H]1CNCCCCCN1S(=O)(=O)c1ccc2cnccc2c1 [Example 33, (R)-6-(2-methyl-1,4-diazonan-1-ylsulfonyl)isoquinoline dihydrochloride]	≥ 15%

SMILES	inhibition in vivo at 10 %
C[C@@H]1CNC/C=C\CN1S(=O)(=O)c1ccc2cnccc2c1 [Example 8, (R,Z)-6-(2-methyl-2,3,4,5-tetrahydro-1,4-diazocin-1(8H)-ylsulfonyl)isoquinoline dihydrochloride]	≥ 15%
C[C@@H]1CNCCCCN1S(=O)(=O)c1ccc2cnccc2c1[N+](=O)[O-] [Example 39, (R)-6-(2-methyl-1,4-diazocan-1-ylsulfonyl)-5-nitroisoquinoline dihydrochloride]	≥ 15%
C[C@@H]1CNCCOCCN1S(=O)(=O)c1ccc2cnccc2c1 [Example 43, (R)-6-(5-methyl-1,4,7-oxadiazonan-4-ylsulfonyl)isoquinoline dihydrochloride]	≥ 15%
O=S(=O)(c1ccc2cnccc2c1)N1CCCNCC1 [Example 3, 6-(1,4-diazepan-1-ylsulfonyl)isoquinoline dihydrochloride]	≥ 15%
C[C@H]1CNCCCCCN1S(=O)(=O)c1ccc2cnccc2c1 [Example 28, (S)-6-(2-methyl-1,4-diazonan-1-ylsulfonyl)isoquinoline dihydrochloride]	≥ 15%
C[C@@H]1CCNCCN(S(=O)(=O)c2ccc3cnccc3c2)C1 [Example 31, (R)-6-(7-methyl-1,4-diazocan-1-ylsulfonyl)isoquinoline dihydrochloride]	≥ 15%
O=S(=O)(c1ccc2cnccc2c1)N1CCOCC1 [Example 9, 6-(morpholin-1-ylsulfonyl)isoquinoline hydrochloride]	5 to 15%
CC1CN(S(=O)(=O)c2ccc3cnccc3c2)CCCN1 (stereo not shown) [Example 16, 6-(3-methyl-1,4-diazepan-1-ylsulfonyl)isoquinoline dihydrochloride]	≥ 15%
C[C@H]1CCNC[C@H](C)N1S(=O)(=O)c1ccc2cnccc2c1 [Example 41, (2S,7S)-6-(2,7-dimethyl-1,4-diazepan-1-ylsulfonyl)isoquinoline dihydrochloride]	≥ 15%
C[C@@H]1CN(C(=O)CN)CCCCN1S(=O)(=O)c1ccc2cnccc2c1 [Example 47, (R)-6-(4-glycyl-2-methyl-1,4-diazocan-1-ylsulfonyl)isoquinoline dihydrochloride]	5 to 15%
N[C@@H]1CCN(S(=O)(=O)c2ccc3cnccc3c2)C1 [Example 2, (R)-6-(3-aminopyrrolidin-1-ylsulfonyl)isoquinoline dihydrochloride]	≥ 15%
O=S(=O)(c1ccc2cnccc2c1)N1C[C@@H]2C[C@H]1CN2 [Example 7, 6-{(1S,4S)-2,5-diazabicyclo[2.2.1]heptan-2-ylsulfonyl}isoquinoline dihydrochloride]	≥ 15%
C[C@H]1CNCCN1S(=O)(=O)c1ccc2cnccc2c1 [Example 13, (S)-6-(2-methylpiperazin-1-ylsulfonyl)isoquinoline dihydrochloride]	≥ 15%
CN[C@H]1CCN(S(=O)(=O)c2ccc3cnccc3c2)C1 [Example 10, (S)-6-{3-(N-methylamino)pyrrolidin-1-ylsulfonyl}isoquinoline dihydrochloride]	5 to 15%
NC1CCN(S(=O)(=O)c2ccc3cnccc3c2)CC1 [Example 4, 6-(4-aminopiperidin-1-ylsulfonyl)isoquinoline dihydrochloride]	5 to 15%
O=S(=O)(c1ccc2cnccc2c1)N1CCCNC[C@H]1CF [Example 26, (S)-6-(2-fluoromethyl-1,4-diazepan-1-ylsulfonyl)isoquinoline dihydrochloride]	≥ 15%
CC1(C)CNCCCN1S(=O)(=O)c1ccc2cnccc2c1 [Example 22, 6-(2,2-dimethyl-1,4-diazepan-1-ylsulfonyl)isoquinoline dihydrochloride]	≥ 15%
C[C@@H]1CCCNCCN1S(=O)(=O)c1ccc2cnccc2c1 [Example 37, (R)-6-(8-methyl-1,4-diazocan-1-ylsulfonyl)isoquinoline dihydrochloride]	≥ 15%
C[C@@H]1CCN(S(=O)(=O)c2ccc3cnccc3c2)CCNC1 [Example 30, (R)-6-(6-methyl-1,4-diazocan-1-ylsulfonyl)isoquinoline dihydrochloride]	≥ 15%
C[C@@H]1CNC[C@@H](C)N1S(=O)(=O)c1ccc2cnccc2c1 [Example 40, (2R,6R)-6-(2,6-dimethylpiperazin-1-ylsulfonyl)isoquinoline dihydrochloride]	≥ 15%
